The text below walks through data of US10209241B2, “High throughput sensitization detection devices and methods” (Rutgers, The State University of New Jersey, priority 2011, dated 2019).

Molecules are shown by their SMILES.

This assay deals with Mutz DCs with T-cells. Put plainly: T-cell activation by sensitized dendritic cells in microfluidic well-trap device (Fluo-4 calcium flux, time lapse microscopy). It counts as cell-based. Conditions: Mutz DCs sensitized with PPD, Fluo-4 labeled T-cells in the chamber, time lapse microscopy (FIG. 5). From the text:
T cells are isolated from the peripheral blood mononuclear fraction by positive selection using CD3 microbeads and magnetic cell separator (Miltenyi Biotec Inc., Auburn, Calif.), following the manufacturer's instructions. The T cells are frozen in liquid nitrogen and thawed prior to use. The T-cells are labeled with a calcium sensitive fluorescent dye, Fluo-4. The present method measures the increase in calcium flux into T-cells, as they form immunological synapses with dendritic cells. For labeling, the T cells are suspended at a density of 1-2×10^6 cells/ml in the medium supplemented with the fluo4 dye diluted to a final concentration of 1 μM. The cells are incubated at 37° C. for 20 minutes, and then washed twice to remove the remaining dye in the medium. The labeled T cells are suspended in the fresh medium prior to loading in the microdevice.
The device is first primed with PBS. Any bubbles, remaining from the priming process, are removed by placing the device in a vacuum dessicater for 1-2 minutes. Once primed, the device is flushed with media. Dendritic cells (DCs) are introduced into the device from inlet 1, by means of a 2.5 μL pipette. Additional head is provided by topping off the pipette tip attached to the device to the required level. The set-screw valves may be employed to adjust the flow to allow the cells to slow down enough so they can settle. […]

On to `Nc1ccc(N)cc1` [PPD], for which the “T-cell clustering around dendritic cells and fluorescence (calcium flux) over time” value was “Clustering accompanied by increase in fluorescence is observed”.
